Source: ChEMBL document CHEMBL3297712, “Chasing protons: how isothermal titration calorimetry, mutagenesis, and pKa calculations trace the locus of charge in ligand binding to a tRNA-binding enzyme” (J Med Chem, 2014)

Legend:
[1] = Binding affinity to wild-type Zymomonas mobilis TGT overexpressed in Escherichia coli BL21(DE3) by isothermal titration calorimetric analysis
[2] = Binding affinity to Zymomonas mobilis TGT E235Q mutant overexpressed in Escherichia coli BL21(DE3) by isothermal titration calorimetric analysis
Zymomonas mobilis [3] = assay: Selectivity ratio of Kd for Zymomonas mobilis TGT D156N mutant to Kd for wild-type Zymomonas mobilis TGT
[4] = Binding affinity to Zymomonas mobilis TGT D156N mutant expressed in Escherichia coli Rosetta 2(DE3) by isothermal titration calorimetric analysis
[5] = Binding affinity to Zymomonas mobilis TGT D102N mutant overexpressed in Escherichia coli BL21(DE3) by isothermal titration calorimetric analysis
Zymomonas mobilis [6] = assay: Selectivity ratio of Kd for Zymomonas mobilis TGT D102N mutant to Kd for wild-type Zymomonas mobilis TGT

| SMILES | Kd [1] [nM] | Kd [2] [nM] | Selectivity ratio (Zymomonas mobilis [3]) | Kd [4] [nM] | Kd [5] [nM] | Selectivity ratio (Zymomonas mobilis [6]) |
| --- | --- | --- | --- | --- | --- | --- |
| CNc1nc2cc3c(=O)[nH]cnc3cc2[nH]1 | 411 |  |  |  |  |  |
| Nc1nc2cc3[nH]c(NCCN4CCOCC4)nc3cc2c(=O)[nH]1 | 35 | 1280 |  |  |  |  |
| Cc1nc2cc3nc(N)[nH]c(=O)c3cc2[nH]1 | 288 |  |  |  |  |  |
| CNc1nc2cc3c(=O)[nH]c(N)nc3cc2[nH]1 | 52.4 |  | 4 | 188 | 146 | 3 |
